# In patent US5994402A, “Anti-inflammatory and anti-pyretic method” (priority 1997, dated 1999):
# Key:
# [1] = test system: RHEC; assay: Cytotoxicity to RHEC (LDH, trypan blue, monolayer integrity); type: cell-based, rat; settings: for supernatant lactate dehydrogenase activity: DEM, mean ± SEM
# Description: To determine whether the reduction in ICAM-1 expression was a direct effect of DEM, we attempted to recapitulate the effect in vitro using rat heart endothelial cells (RHEC) activated by either LPS or TNF-a.
# (§1) ICAM-1 is expressed on a number of cells present in the lung including endothelial cells, macrophages, neutrophils and alveolar epithelial cells {3224}. Since DEM served to reduced PMN sequestration In the lung, we hypothesized that an effect on endothelial cell ICAM-1 expression might be responsible. To test this possibility, we modeled the system in vitro using RHEC activated by either LPS or TNF-a. […] To determine whether the effect of GSH depletion on ICAM-1 expression was species specific, this parameter was similarly evaluated in HUVEC.
# Endothelial cells were isolated from the hearts of 5-day old rats according to the method of Kasten ^22 and allowed to grow to confluence. For experiments 11 to 17, human umbilical vein endothelial cells (HUVEC) were isolated as previously described. The endothelial cells were harvested using trypsin-EDTA treatment and seeded into 96 well, flat bottomed microtitre plates in minimal essential medium with 20% fetal calf serum. When the monolayers had reached confluence (approximately 4 days) cells were pretreated with diethylmaleate for 30 minutes followed by activation with either LPS or TNF-a. After 6 hours, supernatants were collected for measurement of lactate dehydrogenase (LDH) activity. Cells were washed twice with RPMI/5% fetal calf serum and incubated with mouse anti-rat ICAM-1 mAb for 1 hour, washed, and then incubated with peroxidase-conjugated goat anti-mouse IgG for 1 hour. Cells were washed again and color development initiated by the addition of the substrate, o-phenyidiamine hydrochloride. After 18 minutes, the reaction was stopped with 3 M sulfuric acid and the optical density at 492 nm determined using a microtitre plate reader. Data are expressed as the change in absorption from baseline. Quantitation of supernatant LDH activity as a measure of cytotoxicity was determined using spectrophotometric methods as previously described ^23.
# [2] = test system: skin vascular permeability; assay: LPS dermal inflammation: skin permeability index; type: in vivo, Swiss Webster mice; settings: for PI (mean ± SEM): 24 h
# Protocol: Swiss Webster mice were injected intradermally with saline or LPS (30 μg) with or without ip DEM or vehicle. Injection sites were harvested after 24 hours and evaluated for change in vascular permeability, using I^125 -labelled albumin and for levels of ICAM-1 mRNA (Table III).
# [3] = test system: lung GSH; assay: Lung glutathione / non-protein thiol assay (DTNB); type: in vivo, male Sprague Dawley rats; settings: for Lung GSH (t = 4 hrs): LPS +, mean ± SEM
# Protocol: (§2) Male Sprague Dawley rats weighing 250-275 g were obtained from Charles River Laboratories (Constante, Quebec). All animal studies were performed in accordance with guidelines set forth by the Toronto Hospital Animal Care Committee and the Canadian Council on Animal Care. Animals were housed in standard wire bottom cages, fed standard rat chow and water ad libitum and were allowed to acclimatize before use. Prior to experimentation, animals were fasted overnight and anesthetized with intraperitoneal sodium pentobarbital (50 mg/kg). A tracheostomy was performed and 0.5 ml of saline containing […] of lipopolysaccharide was instilled followed by 20 mechanically ventilated breaths using a rodent ventilator. Sham animals received 0.5 ml of saline alone. Animals were maintained at 37° C. with the use of warming blankets until recovery from anaesthesia.
# (§3) For examples 11 to 17, systemic GSH depletion in animals was accomplished by administering various doses of DEM or phorone by intraperitoneal injection following an overnight fast
# (§4) Quantitation of total lung and endothelial non-protein sulfhydryls (NPSH) was assessed using a DTNB based assay as described by Jocelyn. Lung tissue was thawed and weighed, and approximately 0.25 gm was homogenized in 2 ml of 5% SSA. The homogenate was sonicated for 30 seconds and centrifuged for 10 minutes at 10 000 g. The resultant acid thiol extract was assayed for NPSH by quantitating the reduction of DTNB through its conversion to 5-thio-2-nitrobenzoic acid (TNB) at 412 nm using a spectrophotometer. Sample values were then calculated from a standard curve generated using known amounts of GSH and are expressed as GSH equivalents per gram of lung tissue.
# Quantitation of lung non-protein sulfhydryls (NPSH) was assessed using a DTNB based assay as described by Jocelyn ^17. Lung tissue was thawed and weighed, and approximately 0.25 gm was homogenized in 2 ml of 5% SSA. The homogenate was sonicated for 30 seconds and centrifuged for 10 minutes at 10 000 g. The resultant acid thiol extract was assayed for NPSH by quantitating the is reduction of DTNB through its conversion to 5-thio-2-nitrobenzoic acid (TNB) at 412 nm using a spectrophotometer. Sample values were then calculated from a standard curve generated using known amounts of GSH and are expressed as GSH equivalents per gram of lung tissue.
# [4] = test system: antigen-induced arthritis; assay: Antigen-induced arthritis (AIA); type: in vivo, Lewis rats; settings: DEM 6 mmole/kg ip 1 h prior to antigen; 3+ without DEM
# Protocol: We examined the effect of intracellular thiol depletion in antigen-induced arthritis (AIA) with the administration of diethylmaleate (DEM) which is known to deplete glutathione. AIA was induced by sensitizing Lewis rats with 2 subcutaneous injections of methylated bovine serum albumin (1 mg/ml), then administering an intra-articular injection of mBSA.
# [5] = test system: kidney transplant recipients; assay: Kidney transplant survival; type: in vivo, black 6 mouse donor to C3H mouse; settings: DEM 6 mmol/kg to donor and recipient; some mice
# Description: A kidney from a black 6 mouse was transplanted into a C3H mouse in a sample of ten test mice and ten control mice. This is a major mismatch. In the test group, donors were given a single injection of DEM (6mmol/kg) immediately prior to the harvest of the kidney. Recipient mice received a single dose prior to insertion of the kidney. No other agents were used. In the control group, donors and recipients were not given an injection of DEM.
# [6] = test system: intracellular GSH levels in RHEC; assay: Intracellular GSH in RHEC; type: cell-based, rat; settings: DEM 250 mM (so in the source)
# Description: as §1, §4
# [7] = test system: lung permeability after intratracheal LPS; assay: LPS-induced lung injury: lung permeability index (transcapillary 125I-albumin flux); type: in vivo, male Sprague Dawley rats; settings: for Lung PI (t = 4 hrs): LPS +, mean ± SEM
# Protocol: as §2, §3
# At the end of the experimental protocol, rats were ventilated, heparin (100 U) was injected into the right ventricle, and 1 ml of blood was withdrawn by cardiac puncture. Following exsanguination, lungs were perfused blood-free by cannulating the pulmonary artery and infusing 10 ml of a low-potassium dextran solution containing 0.5 mg/L of PGE1. The left ventricle, left atria and mitral valve were opened widely to allow free drainage of effluent. The right lung was immediately frozen in liquid nitrogen for assay of non-protein thiols and ICAM-1 and TNF-a mRNA expression, myeloperoxidase activity, as described below. The left lung was used to calculate a permeability index (PI) as follows: [formula] Thioglycollate-induced Peritonitis
# [8] = test system: cerebral ischemia-reperfusion injury; settings: literature; cited from earlier work
# [9] = phorone 250 mg/kg ip 1 h prior to LPS
compound,measurement,setting,value
"CCOC(=O)/C=C\C(=O)OCC [DEM, diethylmaleate]",cell viability (trypan blue exclusion),[1]; RHEC,did not affect cell viability
same,integrity of the cell monolayer,[1]; RHEC,nor alter the integrity of the cell monolayer
same,supernatant lactate dehydrogenase levels,[1]; RHEC,unaffected
same,supernatant lactate dehydrogenase activity,[1]; RHEC treatment: LPS (1 mg/ml),33.0 ± 4.0 U/L
same,supernatant lactate dehydrogenase activity,[1]; RHEC treatment: TNF-a (100 ng/ml),33.5 ± 2.5 U/L
same,supernatant lactate dehydrogenase activity,[1]; RHEC treatment: control,32.5 ± 3.5 U/L
same,"skin permeability index, DEM alone",[2]; DEM alone,no effect
same,PI (mean ± SEM),[2]; LPS id + DEM 3 mmol/kg ip,4.03 ± 0.43
same,PI (mean ± SEM),"[2]; LPS id + DEM 6 mmol/kg ip, p < 0.001 vs LPS",0.84 ± 0.28
same,Lung GSH (t = 4 hrs),[3]; DEM injected at 0 h,278 ± 18
same,Lung GSH (t = 4 hrs),[3]; DEM injected at +2 h,361 ± 16
same,Lung GSH (t = 4 hrs),[3]; DEM injected at -1 h,185 ± 48
same,Lung GSH (t = 4 hrs),[3]; DEM injected at -3 h,591 ± 118
same,quantitative histopathology score,[4],0
same,survival of recipients,[5],40 to 50 days
same,reduction in intracellular GSH levels,[6],≈ 75%
same,intracellular GSH levels,"[6]; No DEM: 6.74±0.08, p<0.01",1.66±0.1 nmoles/106 cells
same,Lung PI (t = 4 hrs),[7]; DEM injected at -1 h,0.06 ± 0.02
same,Lung PI (t = 4 hrs),[7]; DEM injected at -3 h,0.09 ± 0.02
"CC(C)=CC(=O)C=C(C)C [Phorone, diisopropylidene acetone]",reduction in lung GSH levels,[3]; [9],comparable reduction in lung GSH levels
same,LPS-induced increase in lung permeability,[7]; [9],almost complete prevention of the increase in lung permeability
"CCCCS(=N)(=O)CCC(N)C(=O)O (stereo not shown) [BSO, buthionine sulfoximine]",mortality following cerebral ischemia-reperfusion injury,[8],reduced mortality
